According to patent US6525059B1, “Substituted pyrazoles as p38 kinase inhibitors” (G. D. Searle & Company, priority 1998, dated 2003):

Molecular target: T1, human p38 kinase alpha (Homo sapiens, UniProt Q16539)
T1 construct: The coding region of the human p38a cDNA was obtained by PCR-amplification from RNA isolated from the human monocyte cell line THP.1; GST (N); made in house; host or cells: E. coli DH10B
Test: p38 kinase in vitro assay, phosphorylation of biotinylated PHAS-I with gamma 32P-ATP
Format: biochemical
Details: for inhibition at 10 µM / inhibition at 1 µM: read-out: P38 alpha kinase % inhib @ conc.; for IC50: read-out: P38 alpha kinase IC50
Description: The ability of compounds to inhibit human p38 kinase alpha was evaluated using two in vitro assay methods. In the first method activated human p38 kinase alpha phosphorylates a biotinylated substrate, PHAS-I (phosphorylated heat and acid stable protein-insulin inducible), in the presence of gamma ^32P-ATP (^32P-ATP). PHAS-I was biotinylated prior to the assay and provides a means of capturing the substrate which is phosphorylated during the assay. p38 Kinase was activated by MKK6. Compounds were tested in 10 fold serial dilutions over the range of 100 μM to 0.001 μM using 1% DMSO. Each concentration of inhibitor was tested in triplicate.
All reactions were carried out in 96 well polypropylene plates. Each reaction well contained 25 mM HEPES pH 7.5, 10 mM magnesium acetate and 50 μM unlabeled ATP. […] The reaction proceeded either for one hour or overnight at 30° C.
Following incubation, 20 μl of reaction mixture was transferred to a high capacity streptavidin coated filter plate (SAM-streptavidin-matrix, Promega) prewetted with phosphate buffered saline. […] Filter plates were air dried and 20 μl of scintillant was added. The plates were sealed and counted.

T1 sequence (Q16539 whole entry): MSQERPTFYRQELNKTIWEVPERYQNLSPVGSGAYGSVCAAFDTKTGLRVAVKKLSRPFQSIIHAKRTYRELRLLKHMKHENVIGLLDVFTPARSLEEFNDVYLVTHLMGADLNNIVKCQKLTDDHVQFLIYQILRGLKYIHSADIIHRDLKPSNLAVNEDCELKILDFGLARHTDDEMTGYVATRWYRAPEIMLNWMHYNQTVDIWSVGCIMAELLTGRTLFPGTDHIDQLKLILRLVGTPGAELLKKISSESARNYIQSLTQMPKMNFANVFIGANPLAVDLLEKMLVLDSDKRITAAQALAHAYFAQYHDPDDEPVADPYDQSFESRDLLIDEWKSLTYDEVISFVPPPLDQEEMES

IC50 [nM]	Compound	further results
–	COC(=O)c1ccccc1NC(=O)NCc1[nH]nc(-c2ccc(F)cc2)c1-c1ccncc1 [Example B-0158]	inhibition at 10 µM: 58%
–	COc1cccc(NC(=O)NCc2[nH]nc(-c3ccc(F)cc3)c2-c2ccncc2)c1 [Example B-0160]	inhibition at 10 µM: 59%
–	CCOC(=O)C(C)NC(=O)NCc1[nH]nc(-c2ccc(F)cc2)c1-c1ccncc1 (stereo not drawn) [Example B-0165]	inhibition at 10 µM: 70%
–	COc1ccccc1NC(=O)NCc1[nH]nc(-c2ccc(F)cc2)c1-c1ccncc1 [Example B-0166]	inhibition at 10 µM: 45%
–	COc1ccc(NC(=O)NCc2[nH]nc(-c3ccc(F)cc3)c2-c2ccncc2)c(OC)c1 [Example B-0167]	inhibition at 1 µM: 40%
–	C=CCNC(=O)NCc1[nH]nc(-c2ccc(F)cc2)c1-c1ccncc1 [Example B-0170]	inhibition at 1 µM: 43%
–	O=C(NCc1[nH]nc(-c2ccc(F)cc2)c1-c1ccncc1)Nc1ccc(Cl)c(Cl)c1 [Example B-0173]	inhibition at 10 µM: 33%
–	O=C(NCc1[nH]nc(-c2ccc(F)cc2)c1-c1ccncc1)Nc1ccc(F)cc1 [Example B-0174]	inhibition at 10 µM: 54%
–	C[C@@H](NC(=O)NCc1[nH]nc(-c2ccc(F)cc2)c1-c1ccncc1)c1ccccc1 [Example B-0176]	inhibition at 1 µM: 50%
–	CC(C)c1ccc(NC(=O)NCc2[nH]nc(-c3ccc(F)cc3)c2-c2ccncc2)cc1 [Example B-0178]	inhibition at 10 µM: 12%
–	CC(C)c1ccccc1NC(=O)NCc1[nH]nc(-c2ccc(F)cc2)c1-c1ccncc1 [Example B-0179]	inhibition at 10 µM: 27%
–	O=C(NCc1[nH]nc(-c2ccc(F)cc2)c1-c1ccncc1)Nc1ccc(-c2ccccc2)cc1 [Example B-0180]	inhibition at 10 µM: 34%
–	O=C(NCc1[nH]nc(-c2ccc(F)cc2)c1-c1ccncc1)Nc1cc(Cl)ccc1Cl [Example B-0183]	inhibition at 10 µM: 12%
–	CC(NC(=O)NCc1[nH]nc(-c2ccc(F)cc2)c1-c1ccncc1)c1cccc2ccccc12 (stereo not drawn) [Example B-0184]	inhibition at 10 µM: 66%
–	CCOC(=O)C(NC(=O)NCc1[nH]nc(-c2ccc(F)cc2)c1-c1ccncc1)C(C)C (stereo not drawn) [Example B-0188]	inhibition at 10 µM: 70%
–	O=C(NCc1[nH]nc(-c2ccc(F)cc2)c1-c1ccncc1)Nc1cccc(Cl)c1Cl [Example B-0192]	inhibition at 10 µM: 12%
290	CC(C)(C)C(=O)NCc1[nH]nc(-c2ccc(F)cc2)c1-c1ccncc1 [Example B-0201]	–
74	CC1(C)C2CCC1(CS(=O)(=O)NCc1[nH]nc(-c3ccc(F)cc3)c1-c1ccncc1)C(=O)C2 (stereo not drawn) [Example B-0226]	–
45	CC1(C)C2CCC1(CS(=O)(=O)NCc1[nH]nc(-c3ccc(F)cc3)c1-c1ccncc1)C(=O)C2 (stereo not drawn) [Example B-0227]	–
< 100	O=S(=O)(NCc1[nH]nc(-c2ccc(F)cc2)c1-c1ccncc1)c1cc(Cl)ccc1Cl [Example B-0229]	–
5730	O=S(=O)(NCc1[nH]nc(-c2ccc(F)cc2)c1-c1ccncc1)c1cccc(Cl)c1 [Example B-0239]	–
39	Cc1cccc(Cl)c1S(=O)(=O)NCc1[nH]nc(-c2ccc(F)cc2)c1-c1ccncc1 [Example B-0243]	–

IC50 [nM]	Compound	further results
20	Cc1ccc(C)c(S(=O)(=O)NCc2[nH]nc(-c3ccc(F)cc3)c2-c2ccncc2)c1 [Example B-0244]	–
61	COc1ccc(Cl)cc1S(=O)(=O)NCc1[nH]nc(-c2ccc(F)cc2)c1-c1ccncc1 [Example B-0253]	–
120	N#Cc1ccc(S(=O)(=O)NCc2[nH]nc(-c3ccc(F)cc3)c2-c2ccncc2)cc1 [Example B-0254]	–
860	Cc1cc(C)c(C(=O)NCc2[nH]nc(-c3ccc(F)cc3)c2-c2ccncc2)c(C)c1 [Example B-0280]	–
6660	O=C(NCc1[nH]nc(-c2ccc(F)cc2)c1-c1ccncc1)c1ccc(C(F)(F)F)cc1F [Example B-0283]	–
660	Cc1cccc(C(=O)NCc2[nH]nc(-c3ccc(F)cc3)c2-c2ccncc2)c1 [Example B-0290]	–
220	O=C(NCc1[nH]nc(-c2ccc(F)cc2)c1-c1ccncc1)c1cccc(F)c1 [Example B-0292]	–
660	O=C(NCc1[nH]nc(-c2ccc(F)cc2)c1-c1ccncc1)c1cccc(F)c1F [Example B-0293]	–
820	O=C(NCc1[nH]nc(-c2ccc(F)cc2)c1-c1ccncc1)c1cc(F)ccc1F [Example B-0295]	–
780	O=C(NCc1[nH]nc(-c2ccc(F)cc2)c1-c1ccncc1)c1ccccc1F [Example B-0297]	–
1370	CC(=O)OCC(=O)N[C@H](C)c1[nH]nc(-c2ccc(F)cc2)c1-c1ccncc1 [Example B-0353]	–
450	CC(=O)N[C@H](C)c1[nH]nc(-c2ccc(F)cc2)c1-c1ccncc1 [Example B-0359]	–
330	C[C@@H](NC(=O)C1CC1)c1[nH]nc(-c2ccc(F)cc2)c1-c1ccncc1 [Example B-0361]	–
700	COCC(=O)N[C@H](C)c1[nH]nc(-c2ccc(F)cc2)c1-c1ccncc1 [Example B-0366]	–
160	C[C@@H](NC(=O)c1ccc(F)c(F)c1F)c1[nH]nc(-c2ccc(F)cc2)c1-c1ccncc1 [Example B-0369]	–
490	COc1ccc(CC(=O)N[C@H](C)c2[nH]nc(-c3ccc(F)cc3)c2-c2ccncc2)cc1OC [Example B-0371]	–
1100	C[C@@H](NC(=O)c1ccncc1)c1[nH]nc(-c2ccc(F)cc2)c1-c1ccncc1 [Example B-0378]	–
1410	COc1cccc(C(=O)N[C@H](C)c2[nH]nc(-c3ccc(F)cc3)c2-c2ccncc2)c1 [Example B-0380]	–
220	CC(Oc1ccccc1)C(=O)N[C@H](C)c1[nH]nc(-c2ccc(F)cc2)c1-c1ccncc1 (stereo partly drawn) [Example B-0381]	–
4020	C[C@@H](NC(=O)c1cnc2ccccc2n1)c1[nH]nc(-c2ccc(F)cc2)c1-c1ccncc1 [Example B-0384]	–
43	CCCS(=O)(=O)N[C@H](C)c1[nH]nc(-c2ccc(F)cc2)c1-c1ccncc1 [Example B-0393]	–
170	COc1ccc(S(=O)(=O)N[C@H](C)c2[nH]nc(-c3ccc(F)cc3)c2-c2ccncc2)cc1 [Example B-0397]	–

IC50 [nM]	Compound	further results
54	C[C@@H](NS(=O)(=O)c1cccs1)c1[nH]nc(-c2ccc(F)cc2)c1-c1ccncc1 [Example B-0398]	–
380	C[C@@H](NC(=O)Nc1ccccc1F)c1[nH]nc(-c2ccc(F)cc2)c1-c1ccncc1 [Example B-0410]	–
320	C[C@@H](NC(=O)NCCc1ccccc1)c1[nH]nc(-c2ccc(F)cc2)c1-c1ccncc1 [Example B-0416]	–
910	C[C@@H](NC(=O)N[C@H](C)c1[nH]nc(-c2ccc(F)cc2)c1-c1ccncc1)c1ccccc1 [Example B-0417]	–
850	COc1ccc(NC(=O)N[C@H](C)c2[nH]nc(-c3ccc(F)cc3)c2-c2ccncc2)cc1 [Example B-0419]	–
460	CCNC(=O)N[C@H](C)c1[nH]nc(-c2ccc(F)cc2)c1-c1ccncc1 [Example B-0421]	–
290	CC(=O)Nc1nc(C)c(S(=O)(=O)N[C@H](C)c2[nH]nc(-c3ccc(F)cc3)c2-c2ccncc2)s1 [Example B-0430]	–
300	CC(NS(=O)(=O)CC12CCC(CC1=O)C2(C)C)c1[nH]nc(-c2ccc(F)cc2)c1-c1ccncc1 (stereo not drawn) [Example B-0435]	–
< 100	C[C@@H](NS(=O)(=O)c1cc(Cl)ccc1Cl)c1[nH]nc(-c2ccc(F)cc2)c1-c1ccncc1 [Example B-0438]	–
1010	C[C@@H](NS(=O)(=O)c1cccc2c(N(C)C)cccc12)c1[nH]nc(-c2ccc(F)cc2)c1-c1ccncc1 [Example B-0444]	–
400	C[C@@H](NS(=O)(=O)c1ccc(Cl)cc1Cl)c1[nH]nc(-c2ccc(F)cc2)c1-c1ccncc1 [Example B-0448]	–
99	CC(NS(=O)(=O)c1ccc(C(F)(F)F)cc1)c1[nH]nc(-c2ccc(F)cc2)c1-c1ccncc1 (stereo not drawn) [Example B-0459]	–
61	CCc1ccc(S(=O)(=O)N[C@H](C)c2[nH]nc(-c3ccc(F)cc3)c2-c2ccncc2)cc1 [Example B-0460]	–
4	C[C@@H](NS(=O)(=O)c1ccc(Cl)s1)c1[nH]nc(-c2ccc(F)cc2)c1-c1ccncc1 [Example B-0473]	–
560	Cc1noc(C)c1S(=O)(=O)N[C@H](C)c1[nH]nc(-c2ccc(F)cc2)c1-c1ccncc1 [Example B-0476]	–
280	C[C@@H](NS(=O)(=O)c1cc(S(=O)(=O)c2ccccc2)cs1)c1[nH]nc(-c2ccc(F)cc2)c1-c1ccncc1 [Example B-0484]	–
40	C[C@@H](NS(=O)(=O)c1ccc(-c2ccon2)s1)c1[nH]nc(-c2ccc(F)cc2)c1-c1ccncc1 [Example B-0485]	–
430	Cc1ccc(S(C)(=O)=O)cc1S(=O)(=O)N[C@H](C)c1[nH]nc(-c2ccc(F)cc2)c1-c1ccncc1 [Example B-0491]	–
49	C[C@@H](NC(=O)c1ccc(F)c(F)c1)c1[nH]nc(-c2ccc(F)cc2)c1-c1ccncc1 [Example B-0501]	–
280	Cc1cc(C)c(C(=O)N[C@H](C)c2[nH]nc(-c3ccc(F)cc3)c2-c2ccncc2)c(C)c1 [Example B-0505]	–
690	C[C@@H](NC(=O)c1cccc(C(F)(F)F)c1F)c1[nH]nc(-c2ccc(F)cc2)c1-c1ccncc1 [Example B-0510]	–
1000	C[C@@H](NC(=O)c1ccc(F)c(C(F)(F)F)c1)c1[nH]nc(-c2ccc(F)cc2)c1-c1ccncc1 [Example B-0512]	–
